The NIST ThermoML archive (doi:10.1021/acs.jced.9b00507)

Test: xn = mol fraction of the nth substance listed
Conditions: 100 kPa, Liquid; for viscosity: Concentric cylinders viscometry; for mass density: Vibrating tube method

CCCCCCn1cc[n+](C)c1.O=[N+]([O-])[O-] [1-hexyl-3-methylimidazolium nitrate] + CCCCCCCCCO
Conditions	mass density [kg/m3]	viscosity [mPa·s]
293.15 K, x1 = 0.0819	856.1	15.74
293.15 K, x1 = 0.1609	882.8	22.23
293.15 K, x1 = 0.2386	908.3	30.27
293.15 K, x1 = 0.3483	942.9	48.53
293.15 K, x1 = 0.4392	970.5	71.12
293.15 K, x1 = 0.5588	1005.4	117.49
293.15 K, x1 = 0.6508	1031.3	177.42
293.15 K, x1 = 0.7394	1055.3	263.63
293.15 K, x1 = 0.8497	1083.9	413.05
293.15 K, x1 = 0.9456	1107.6	630.96
293.15 K, x1 = 1	1120.3	804.17
298.15 K, x1 = 0.0819	852.5	12.59
298.15 K, x1 = 0.1609	879.2	16.67
298.15 K, x1 = 0.2386	904.7	21.93
298.15 K, x1 = 0.3483	939.3	33.81
298.15 K, x1 = 0.4392	967	48.19
298.15 K, x1 = 0.5588	1001.9	79.43
298.15 K, x1 = 0.6508	1027.9	118.3
298.15 K, x1 = 0.7394	1052	175.79
298.15 K, x1 = 0.8497	1080.7	288.4
298.15 K, x1 = 0.9456	1104.5	439.6
298.15 K, x1 = 1	1117.5	545.25
303.15 K, x1 = 0.0819	849	10.19
303.15 K, x1 = 0.1609	875.5	13.18
303.15 K, x1 = 0.2386	901	16.79
303.15 K, x1 = 0.3483	935.6	24.27
303.15 K, x1 = 0.4392	963.3	33.11
303.15 K, x1 = 0.5588	998.3	51.88
303.15 K, x1 = 0.6508	1024.3	76.03
303.15 K, x1 = 0.7394	1048.4	113.24
303.15 K, x1 = 0.8497	1077.3	188.34
303.15 K, x1 = 0.9456	1101.2	294.59
303.15 K, x1 = 1	1114.3	369.14
308.15 K, x1 = 0.0819	845.5	8.41
308.15 K, x1 = 0.1609	872	10.05
308.15 K, x1 = 0.2386	897.4	12.25
308.15 K, x1 = 0.3483	932	16.94
308.15 K, x1 = 0.4392	959.7	22.08
308.15 K, x1 = 0.5588	994.7	32.81
308.15 K, x1 = 0.6508	1020.6	45.71
308.15 K, x1 = 0.7394	1044.8	68.08
308.15 K, x1 = 0.8497	1073.7	116.37
308.15 K, x1 = 0.9456	1097.8	192.31
308.15 K, x1 = 1	1111.1	257.59
313.15 K, x1 = 0.0819	841.9	6.7
313.15 K, x1 = 0.1609	868.3	7.87
313.15 K, x1 = 0.2386	893.7	9.06
313.15 K, x1 = 0.3483	928.3	11.04
313.15 K, x1 = 0.4392	956	13.27
313.15 K, x1 = 0.5588	991	18.92
313.15 K, x1 = 0.6508	1017	26.73
313.15 K, x1 = 0.7394	1041.2	41.3
313.15 K, x1 = 0.8497	1070.2	73.71
313.15 K, x1 = 0.9456	1094.4	136.37
313.15 K, x1 = 1	1107.8	185.67
318.15 K, x1 = 0.0819	838.3	5.28
318.15 K, x1 = 0.1609	864.7	5.78
318.15 K, x1 = 0.2386	890	6.35
318.15 K, x1 = 0.3483	924.6	7.36
318.15 K, x1 = 0.4392	952.3	8.61
318.15 K, x1 = 0.5588	987.4	11.46
318.15 K, x1 = 0.6508	1013.5	15.85
318.15 K, x1 = 0.7394	1037.8	25.39
318.15 K, x1 = 0.8497	1066.9	53.43
318.15 K, x1 = 0.9456	1091.2	101.71
318.15 K, x1 = 1	1104.7	140.18
323.15 K, x1 = 0.0819	834.7	4.15
323.15 K, x1 = 0.1609	861.1	4.25
323.15 K, x1 = 0.2386	886.4	4.41
323.15 K, x1 = 0.3483	921	4.84
323.15 K, x1 = 0.4392	948.6	5.33
323.15 K, x1 = 0.5588	983.8	6.84
323.15 K, x1 = 0.6508	1009.9	9.63
323.15 K, x1 = 0.7394	1034.3	16.2
323.15 K, x1 = 0.8497	1063.5	37.68
323.15 K, x1 = 0.9456	1088	78.73
323.15 K, x1 = 1	1101.6	110.94
